Test results as given in publication PMC4526917 (Journal of Experimental Botany, 2015).
Peptide text beside a SMILES is read from it.

Legend:
[1] = tested on: F. graminearum conidia and mycelia; assay type: cell-based, Fusarium graminearum; details: 90 µM peptide, after 6h; microscopy
U. maydis spores [2] = details: for inhibition of germination of Ustilago spores: 24 h, 90 μM
[3] = tested on: F. graminearum conidia and mycelia; assay type: cell-based, Fusarium graminearum; details: NBT staining of superoxide; 60 µM peptide (Fig. 6)
U. maydis spores [4] = assay type: cell-based, Ustilago maydis
maize pollen tubes = assay: Pollen tube burst assay; assay type: cell-based, Zea mays; details: for maize pollen tube burst: mean ±SD
Description: The assay was applied as described ([Woriedh et al., 2013]). Briefly, freshly collected pollen was immediately distributed onto Petri dishes containing droplets of 10 µL PGM at different pH values. Pollen tubes started to burst or to grow after about 10min. Pollen tubes were subjected to further studies only if germination rates exceeded 80%. After optimization, PGM at pH 5 was applied to all pollen tube assays. A 10 µL solution of the above peptides or acetonitrile as a negative control was added to each droplet of germinated pollen using a Cell-TramH Air pump (Eppendorf) and a glass micropipette. During this assay, droplets were observed using an Eclipse TE2000 inverted microscope (Nikon) equipped with a 1.4 Megapixel digital AxioCam MRm camera (black and white) and AxioVision digital image processing software (Release 4.8).

F. graminearum conidia = assay type: cell-based, Fusarium graminearum; details: for fungal germination in Fusarium / conidia that did not germinate at all: 90 µM peptide; for fungal germination in Fusarium: 24 hours in PGM, absorbance at 595 nm, germination above 60% taken as threshold; for conidia that did not germinate at all: microscopy; for concentration giving complete suppression of conidia germination: PGM, 24h
U. maydis spores [5] = assay type: cell-based, Ustilago maydis; remark: listed apart in the source
maize pollen tube = tested on: maize pollen tube; design: method as in Amien et al., 2010; details: ref Amien et al., 2010; cited from earlier work

Compound | effect on developed F. graminearum mycelia (24 hpi) [1] | concentration giving complete suppression of spore germination (U. maydis spores [2]) [µM] | germination of Ustilago spores (U. maydis spores [2]) [%] | spores that did not germinate at all (U. maydis spores [2]) | inhibition of germination of Ustilago spores (U. maydis spores [2]) [%] | ROS production in F. graminearum conidia and mycelia [3] | ROS production in U. maydis spores (U. maydis spores [4]) | maize pollen tube burst (maize pollen tubes; peptide concentration not stated at this place (100nM, 250nM and 500nM applied), PGM pH 5, 5min after application) [%] | fungal germination in Fusarium (F. graminearum conidia) [%] | conidia that did not germinate at all (F. graminearum conidia) | concentration giving complete suppression of conidia germination (F. graminearum conidia) [µM] | effect on U. maydis spores (U. maydis spores [5]) | maize pollen tube burst (maize pollen tubes; 500nM peptide in PGM pH 5, measured 5min after application, P < 0.001) [%] | time after application until pollen tubes started to burst (maize pollen tubes; PGM pH 5, in words) | effect on maize pollen tube growth behaviour (maize pollen tube)
CC(C)C[C@H](NC(=O)[C@H](CS)NC(=O)[C@H](CCCNC(=N)N)NC(=O)CNC(=O)CNC(=O)[C@@H](NC(=O)[C@H](Cc1ccc(O)cc1)NC(=O)CNC(=O)[C@H](CCCCN)NC(=O)CNC(=O)[C@H](CCC(=O)O)NC(=O)[C@H](C)NC(=O)[C@H](CCCNC(=N)N)NC(=O)[C@H](CS)NC(=O)CN)[C@@H](C)O)C(=O)O [ES-c] (H-GCRAEGKGYTGGRCL-OH; N-terminus and C-terminus assumed) | breaking/bursting of cell walls and release of vacuoles | 120 | 19.1±3.8 | Approximately 80% | 80.9±1.0 | strongly produced ROS | ROS production was also detected | 29.3±4.2 | 19.1±3.8 | Approximately 80% | 120 | – | – | – | –
CC[C@H](C)[C@H](NC(=O)CNC(=O)[C@H](CC(=O)O)NC(=O)[C@H](CC(C)C)NC(=O)[C@@H](NC(=O)[C@@H](NC(=O)[C@@H]1CCCN1C(=O)[C@H](CO)NC(=O)[C@@H](NC(=O)[C@H](CC(C)C)NC(=O)[C@H](CS)NC(=O)[C@@H](N)CCCNC(=N)N)[C@@H](C)CC)[C@@H](C)CC)[C@@H](C)O)C(=O)N[C@@H](CC(C)C)C(=O)N[C@@H](CS)C(=O)N[C@@H](Cc1ccc(O)cc1)C(=O)O [ES-d] (H-RCLISPITLDGILCY-OH; N-terminus and C-terminus assumed) | breaking/bursting of cell walls and release of vacuoles | 120 | 20.6±2.1 | Approximately 80% | 78.7±1.0 | strongly produced ROS | ROS production was also detected | – | 20.6±2.1 | Approximately 80% | 120 | burst of swelling spores and excretion of vacuoles and cell components | 82.5±5.2 | within a few seconds | –
AFP2: anti-fungal protein AFP2 from radish (Raphanus sativus) (QKLCQRPSGTWSGVCGNNNACKNQCIRLEKARHGSCNYVFPAHKCICYFPC; UniProt P30230 30-80, looked up) | – | – | – | – | – | – | – | – | – | – | – | – | – | – | did not affect
